Molecules are shown by their SMILES. pIC50: −log10 of the molar value.

In assay [1] the target is T1, recombinant human plasminogen activator inhibitor-1 (PAI-1) (Homo sapiens, UniProt P05121).
T1 construct: purchased Molecular Innovations, Royal Oak, Mich
Briefly: Primary screen for the PAI-1 inhibition (chromogenic tPA activity assay). In kind it is biochemical. Particulars: pH 6.6, 140 nM PAI-1, 70 nM tPA; for inhibition at 10 µM: 10 μM test compound; for inhibition at 25 µM: 25 μM test compound. On the procedure:
Primary Screen for the PAI-1 Inhibition
Test compounds are dissolved in DMSO at a final concentration of 10 mM, then diluted 100× in physiologic buffer. The inhibitory assay is initiated by the addition of the test compound (1-100 μM final concentration, maximum DMSO concentration of 0.2%) in a pH 6.6 buffer containing 140 nM recombinant human plasminogen activator inhibitor-1 (PAI-1; Molecular Innovations, Royal Oak, Mich.). Following a 1 hour incubation at room temperature, 70 nM of recombinant human tissue plasminogen activator (tPA) is added, and the combination of the test compound, PAI-1 and tPA is incubated for an additional 30 minutes. Following the second incubation, Spectrozyme-tPA (American Diagnostica, Greenwich, Conn.), a chromogenic substrate for tPA, is added and absorbance read at 405 nm at 0 and 60 minutes. Relative PAI-1 inhibition is equal to the residual tPA activity in the presence of the test compound and PAI-1. Control treatments include the complete inhibition of tPA by PAI-1 at the molar ratio employed (2:1), and the absence of any effect of the test compound on tPA alone.

The next assay has as its target human PAI-1 (Homo sapiens, UniProt P05121). Briefly: Assay for determining IC50 of inhibition of PAI-1 (tPA-coated plate, antibody detection of active PAI-1). The assay is classed as binding. The following applies: active PAI-1 bound to tPA-coated plate; pH 7.5. On the procedure:
Assay for determining IC50 of Inhibition of PAI-1
This assay is based upon the non-SDS dissociable interaction between tPA and active PAI-1. Assay plates are initially coated with human tPA (10 μg/ml). Test compounds of the present invention are dissolved in DMSO at 10 mM, then diluted with physiologic buffer (pH 7.5) to a final concentration of […]. Test compounds are incubated with human PAI-1 (50 ng/ml) for 15 minutes at room temperature. The tPA-coated plate is washed with a solution of 0.05% Tween 20 and 0.1% BSA, then the plate is blocked with a solution of 3% BSA. An aliquot of the substituted sulfonamide indole/PAI-1 solution is then added to the tPA-coated plate, incubated at room temperature for 1 hour, and washed. Active PAI-1 bound to the plate is assessed by adding an aliquot of a 1:1000 dilution of the 33B8 monoclonal antibody against human PAI-1, and incubating the plate at room temperature for 1 hour (Molecular Innovations, Royal Oak, Mich.). The plate is again washed, and a solution of goat anti-mouse IgG-alkaline phosphatase conjugate is added at a 1:50,000 dilution in goat serum. The plate is incubated 30 minutes at room temperature, washed, and a solution of alkaline phosphatase substrate is added. The plate is incubated 45 minutes at room temperature, and color development is determined at OD405 nm. The quantitation of active PAI-1 bound to tPA at varying concentrations of the test compound is used to determine the IC50. Results are analyzed using a logarithmic best-fit equation. The assay sensitivity is 5 ng/ml of human PAI-1 as determined from a standard curve ranging from 0-100 ng/ml.

human PAI-1, sequence (P05121 24-402): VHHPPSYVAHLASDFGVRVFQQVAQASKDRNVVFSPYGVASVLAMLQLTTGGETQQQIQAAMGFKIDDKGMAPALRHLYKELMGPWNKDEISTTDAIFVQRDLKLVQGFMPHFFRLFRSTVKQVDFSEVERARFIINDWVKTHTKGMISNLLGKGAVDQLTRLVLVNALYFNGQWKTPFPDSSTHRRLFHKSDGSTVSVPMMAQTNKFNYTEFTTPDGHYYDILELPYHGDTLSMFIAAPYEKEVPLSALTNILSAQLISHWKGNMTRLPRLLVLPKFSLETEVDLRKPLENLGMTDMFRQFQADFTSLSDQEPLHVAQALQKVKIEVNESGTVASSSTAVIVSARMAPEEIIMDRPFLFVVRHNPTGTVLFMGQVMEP
T1 sequence (P05121 24-402): as above

For `O=C(O)c1[nH]c2ccc(NS(=O)(=O)c3ccc(OC(F)(F)F)cc3)cc2c1-c1ccccc1` [Example 19, 3-phenyl-5-({[4-(trifluoromethoxy)phenyl]sulfonyl}amino)-1H-indole-2-carboxylic acid], in assay [1], the inhibition at 10 µM stood at 12% and the inhibition at 25 µM amounted to 50%.
On to `O=C(O)c1c(-c2ccccc2)c2cc(NS(=O)(=O)c3ccccc3)ccc2n1Cc1ccc(-c2ccccc2)cc1` [Example 14, 1-(1,1′-biphenyl-4-ylmethyl)-3-phenyl-5-[(phenylsulfonyl)amino]-1H-indole-2-carboxylic acid], for which, in assay [1], the inhibition at 10 µM was found to be 77% and the inhibition at 25 µM was 87%. In addition, the pIC50 on human PAI-1 is 4.55.
For `O=C(O)c1c(-c2ccc3[nH]ccc3c2)c2cc(NS(=O)(=O)c3ccccc3)ccc2n1Cc1ccccc1` [Example 18, 1-benzyl-5-[(phenylsulfonyl)amino]-1H,1′H-3,5′-biindole-2-carboxylic acid], in assay [1], the inhibition at 10 µM was 19% and the inhibition at 25 µM turned out to be 55%.
For `CS(=O)(=O)Nc1ccc2c(c1)c(-c1ccccc1)c(C(=O)O)n2C(c1ccccc1)c1ccccc1` [Example 15, 1-benzhydryl-5-[(methylsulfonyl)amino]-3-phenyl-1H-indole-2-carboxylic acid], in assay [1], the inhibition at 10 µM amounted to 10% and the inhibition at 25 µM stood at 36%.
On to `Cn1c(C(=O)O)c(-c2ccccc2)c2cc(NS(=O)(=O)c3ccc(-c4ccccc4)cc3)ccc21` [Example 7, 5-[(1,1′-biphenyl-4-ylsulfonyl)amino]-1-methyl-3-phenyl-1H-indole-2-carboxylic acid], for which, in assay [1], the inhibition at 10 µM is 11% and the inhibition at 25 µM stood at 68%.
The matching figures for `Cn1c(C(=O)N[C@@H](Cc2ccccc2)C(=O)O)c(-c2ccccc2)c2cc(NS(=O)(=O)c3ccc(-c4ccccc4)cc3)ccc21` [Example 9, N-({5-[(1,1′-biphenyl-4-ylsulfonyl)amino]-1-methyl-3-phenyl-1H-indol-2-yl}carbonyl)-L-phenylalanine]: 8% and 73%.
As to `Cn1c(C(=O)O)c(-c2ccccc2)c2cc(NS(=O)(=O)c3ccc(OC(F)(F)F)cc3)ccc21` [Example 5, 1-methyl-3-phenyl-5-({[4-(trifluoromethoxy)phenyl]sulfonyl}amino)-1H-indole-2-carboxylic acid], in assay [1], the inhibition at 25 µM turned out to be 19%.
Consider `CC(C)(C)c1ccc(S(=O)(=O)Nc2ccc3c(c2)c(-c2ccccc2)c(C(=O)O)n3Cc2ccccc2)cc1` [Example 3, 1-benzyl-5-{[(4-tert-butylphenyl)sulfonyl]amino}-3-phenyl-1H-indole-2-carboxylic acid], for which, in assay [1], the inhibition at 10 µM is 41% and the inhibition at 25 µM was 82%. The pIC50 against human PAI-1 was 4.54.
The matching figures for `CC(C)(C)c1ccc(S(=O)(=O)Nc2ccc3[nH]c(C(=O)O)c(-c4ccccc4)c3c2)cc1` [Example 20, 5-{[(4-tert-butylphenyl)sulfonyl]amino}-3-phenyl-1H-indole-2-carboxylic acid]: 20%, 81% and 4.55.
Turning to `CC(C)C[C@H](NC(=O)c1c(-c2ccccc2)c2cc(NS(=O)(=O)c3ccc(OC(F)(F)F)cc3)ccc2n1C)C(=O)O` [Example 8, N-{[1-methyl-3-phenyl-5-({[4-(trifluoromethoxy)phenyl]sulfonyl}amino)-1H-indol-2-yl]carbonyl}-L-leucine], in assay [1], the inhibition at 10 µM was 18% and the inhibition at 25 µM was 73%.
With `O=C(O)c1[nH]c2ccc(NS(=O)(=O)c3ccc(-c4ccccc4)cc3)cc2c1-c1ccccc1` [Example 21, 5-[(1,1′-biphenyl-4-ylsulfonyl)amino]-3-phenyl-1H-indole-2-carboxylic acid], in assay [1], the inhibition at 10 µM came out at 29% and the inhibition at 25 µM came out at 86%. Moreover, at human PAI-1, the pIC50 is 4.71.
Consider `CC(C)(C)c1ccc(-c2c(C(=O)O)n(Cc3ccccc3)c3ccc(NS(=O)(=O)c4ccc(OC(F)(F)F)cc4)cc23)cc1` [Example 17, 1-Benzyl-3-(4-tert-butylphenyl)-5-({[4-(trifluoromethoxy)phenyl]sulfonyl}amino)-1H-indole-2-carboxylic acid], for which, in assay [1], the inhibition at 10 µM came to 43% and the inhibition at 25 µM was found to be 84%.
On to `O=C(O)c1c(-c2ccccc2)c2cc(NS(=O)(=O)c3ccc(OC(F)(F)F)cc3)ccc2n1Cc1ccccc1` [Example 1, 1-benzyl-3-phenyl-5-({[4-(trifluoromethoxy)phenyl]sulfonyl}amino)-1H-indole-2-carboxylic acid], for which, in assay [1], the inhibition at 10 µM was 33% and the inhibition at 25 µM came out at 81%. The negative-log IC50 (pIC50) on human PAI-1 was 5.08.
Turning to `Cn1c(C(=O)O)c(-c2ccccc2)c2cc(NS(=O)(=O)c3ccc(C(C)(C)C)cc3)ccc21` [Example 6, 5-{[(4-tert-butylphenyl)sulfonyl]amino}-1-methyl-3-phenyl-1H-indole-2-carboxylic acid], the inhibition at 25 µM in assay [1] came out at 46%.
As for `Cn1c(C(=O)N[C@@H](Cc2ccccc2)C(=O)O)c(-c2ccccc2)c2cc(NS(=O)(=O)c3ccc(C(C)(C)C)cc3)ccc21` [Example 11, N-[(5-{[(4-tert-butylphenyl)sulfonyl]amino}-1-methyl-3-phenyl-1H-indol-2-yl)carbonyl]-L-phenylalanine], in assay [1], the inhibition at 10 µM was determined as 15% and the inhibition at 25 µM amounted to 77%.
On to `O=C(O)c1c(-c2ccccc2)c2cc(NS(=O)(=O)c3ccc(-c4ccccc4)cc3)ccc2n1Cc1ccccc1` [Example 4, 1-benzyl-5-[(1,1′-biphenyl-4-ylsulfonyl)amino]-3-phenyl-1H-indole-2-carboxylic acid], for which, in assay [1], the inhibition at 10 µM was 44% and the inhibition at 25 µM is 61%. The same molecule showed a negative logarithm of the IC50 (pIC50) on human PAI-1 of 4.64.
For the molecule `O=C(O)c1c(-c2ccccc2)c2cc(NS(=O)(=O)c3cccc4cccnc34)ccc2n1Cc1ccccc1` [Example 2, 1-benzyl-3-phenyl-5-[(quinolin-8-ylsulfonyl)amino]-1H-indole-2-carboxylic acid], in assay [1], the inhibition at 10 µM is 8% and the inhibition at 25 µM was 43%.
For `CC(C)C[C@H](NC(=O)c1c(-c2ccccc2)c2cc(NS(=O)(=O)c3ccc(-c4ccccc4)cc3)ccc2n1C)C(=O)O` [Example 10, N-({5-[(1,1′-biphenyl-4-ylsulfonyl)amino]-1-methyl-3-phenyl-1H-indol-2-yl}carbonyl)-L-leucine], in assay [1], the inhibition at 10 µM worked out at 15% and the inhibition at 25 µM was found to be 74%.
As for `CC(C)C[C@H](NC(=O)c1c(-c2ccccc2)c2cc(NS(=O)(=O)c3ccc(C(C)(C)C)cc3)ccc2n1C)C(=O)O` [Example 12, N-[(5-{[(4-tert-butylphenyl)sulfonyl]amino}-1-methyl-3-phenyl-1H-indol-2-yl)carbonyl]-L-leucine], in assay [1], the inhibition at 10 µM stood at 14% and the inhibition at 25 µM was 64%.
The matching figures for `CS(=O)(=O)Nc1ccc2c(c1)c(-c1ccccc1)c(C(=O)O)n2Cc1ccc(-c2ccccc2)cc1` [Example 13, 1-(1,1′-biphenyl-4-ylmethyl)-5-[(methylsulfonyl)amino]-3-phenyl-1H-indole-2-carboxylic acid]: 24% and 62%.
The matching figures for `O=C(O)c1c(-c2ccccc2)c2cc(NS(=O)(=O)c3ccccc3)ccc2n1C(c1ccccc1)c1ccccc1` [Example 16, 1-benzhydryl-3-phenyl-5-[(phenylsulfonyl)amino]-1H-indole-2-carboxylic acid]: 68% and 89%.

In general, inhibition refers to the relative decrease from the control value, in per cent. As usually defined, the pIC50 is the negative decadic logarithm of the IC50, by convention in mol/L. A low value points to a large IC50.

Values taken from patent US7442805B2, “Substituted sulfonamide-indoles” (Wyeth, priority 2003, dated 2008).
